One may read the Cmax as the peak of the concentration-time curve. As usually defined, the Tmax is the time at which the peak concentration occurs.

Where two headings read alike, the source gives them in different places.

Here are results for one molecule from publication PMC6425379, “Pharmacokinetic Study and Tissue Distribution of Lorlatinib in Mouse Serum and Tissue Samples by Liquid Chromatography-Mass Spectrometry” (Journal of Analytical Methods in Chemistry, 2019).

Data set [1] in a line: Tissue distribution of lorlatinib in mice after oral administration (LC-MS/MS). The following applies: 10 mg/kg; for concentration at 0.5 h: Kun Ming, mouse. Type of data set: in vivo, Kun Ming mice. The procedure: (§1) All the animal-related experiments were performed in accordance with guidelines of Institutional Experimental Animal Ethical Committee. Kun Ming mice (18–20 g) were obtained from the Beijing HFK Bioscience Co., Ltd. (Beijing, China). All mice were given free access to normal diet and water during the experiment with an exception that mice were fasted for 12 h prior to drug administration.
Tissue samples were weighed, and methanol was added to tissue samples at a ratio of methanol: tissue = 2 mL: 100 mg. Subsequently, tissue samples were homogenized using a high-throughput tissue homogenizer and vortex-mixed for 3 min. Supernatant was obtained by centrifuging at 11,000 rpm for 15 min. Then, 400 μL of 40 ng/mL IS solution was added to 100 μL supernatant. After vortex-mixing, supernatant was isolated by centrifugation.
(§2) The mice were orally administered with 10 mg/kg lorlatinib. Blood and tissue samples were collected from mice at 0.5, 1, 2, 4, 8, and 24 h after administration. The blood samples were transferred into glass containers and clotted at room temperature for 1 h. Once the clot was formed, blood sample was centrifuged at 4,000 rpm for 10 min, and supernatant was collected. The serum was transferred into another tube and stored at −80°C prior to further analysis. Tissue samples were rinsed by physiological saline, and then excess physiological saline was blotted up. The tissue samples were transferred into PP plastic bags and stored at −80°C until further detection.
(§3) The pharmacokinetic parameters of lorlatinib were estimated with noncompartment model by DAS (Data Analysis System) software (version 3.0, BioGuider Co., Shanghai, China). Moment analysis was used as a noncompartmental approach to obtain various pharmacokinetic parameters. Noncompartmental approach allowed the estimation of pharmacokinetic parameters without assuming any structural properties of the pharmacokinetic behavior of lorlatinib. The area under the curve (AUC) and the first moment curve (AUMC) were calculated by using the linear trapezoidal method, which is required by FDA. The half-life (t1/2) was estimated as MRT multiplied by 0.693. Cmax was defined as maximal concentration, and Tmax was defined as the time at which the Cmax was observed. The tissue distribution was described by quantifying lorlatinib in various tissues at 0.5, 1, 2, 4, 8, and 24 h after administration. All data were summarized to calculate means and standard deviations, and then the concentration-time curve was plotted.

The nature of data set [2]: Pharmacokinetic study of lorlatinib in mouse serum after oral administration (LC-MS/MS, noncompartmental model). The following applies: mice, 10 mg/kg. Format: in vivo, Kun Ming mice. The procedure: as §1
In order to make all serum samples fall within the range suitable for testing, 10 μL of serum sample was diluted to 100 μL with blank serum. The diluted serum sample was evenly mixed using vortex-mixing. A mixture sample was prepared by adding 200 μL of IS working solution (10 ng/mL) to 20 μL of diluted serum sample, and the mixture was vortex-mixed for 3 min. In order to extract lorlatinib, the supernatant was obtained by centrifugation (11,000 rpm, 15 min, 4°C). Then, 100 μL of supernatant was diluted to 200 μL with purified water, and the mixture was immediately vortex-mixed for 3 min.
as §2, §3

On to `C[C@H]1Oc2cc(cnc2N)-c2c(nn(C)c2C#N)CN(C)C(=O)c2ccc(F)cc21` [Lorlatinib], for which, in data set [1] (each tissue), the “time at which the maximum concentration appeared in each tissue” value is 0.5 h. Further, the concentration at 0.5 h turned out to be 1850 ng/g in data set [1] (brain, read-out: concentration in brain); 3670 ng/g in data set [1] (heart, read-out: concentration in heart); 5490 ng/g in data set [1] (kidney, read-out: concentration in kidney); 2900 ng/g in data set [1] (large intestine, read-out: concentration in large intestine); 31500 ng/g in data set [1] (liver, read-out: concentration in liver); 3090 ng/g in data set [1] (lung, read-out: concentration in lung). Also, the concentration at 0.5 h in data set [1] (small intestine, read-out: concentration in small intestine) was 5410 ng/g; in data set [1] (spleen, read-out: concentration in spleen), 2470 ng/g; in data set [1] (stomach, read-out: concentration in stomach) it was 21600 ng/g. This molecule also showed a concentration at 24 h in data set [2] (Kun Ming, mouse, 24 h after administration) of 20.9 ± 1.07 ng/mL. This molecule also showed a Cmax in data set [2] (Kun Ming, mouse, n=8, mean) of 2710 ng/mL. The Tmax in data set [2] (Kun Ming, mouse, n=8, mean) amounted to 0.625 h. Moreover, the half-life in data set [2] (Kun Ming, mouse, n=8, mean, read-out: t1/2z (converted)) is 3.26 h. Also, the maximal serum concentration in data set [2] (mean ± SD) is 2,705.683 ± 539.779 μg/L. In addition, the “AUC(0–∞)” value in data set [2] (n=8, mean) was 16208.177 ug/L ∗ h. In addition, the “AUMC(0–∞)” value in data set [2] (n=8, mean) is given as 78840.738 h ∗ h ∗ ug/L.
